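Grown in 96-well plates, cells were treated for 48 hours with each compound at five concentrations. Insufficient inhibition: endpoint recorded as highest concentration tested. The concentration for 50% growth inhibition is given as GI50.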 Active and inactive are the calls of the source. No stated cut-off is given here; in the data, active = GI50 up to about 1.1 µM and inactive = higher.
How the values were obtained:
Experiment in all cases: NCI anticancer screen, dose series, 48 h
T47D = test system: T47D
SK-MEL-2 = test system: SK-MEL-2
NCI/ADR-RES = test system: NCI/ADR-RES
DU-145 = test system: DU-145
HCC 2998 = test system: HCC 2998
OVCAR-5 = test system: OVCAR-5
HOP-62 = test system: HOP-62
NCI-H460 = test system: NCI-H460
Malme-3M = test system: Malme-3M
CCRF-CEM = test system: CCRF-CEM
UO-31 = test system: UO-31
NCI-H226 = test system: NCI-H226
HL-60 = test system: HL-60
UACC-257 = test system: UACC-257
HCT-15 = test system: HCT-15
MOLT-4 = test system: MOLT-4
SF-295 = test system: SF-295
SF-268 = test system: SF-268
UACC-62 = test system: UACC-62
MDA-MB-435 = test system: MDA-MB-435

CC(=O)c1[nH]c(NCc2ccccc2)c(C(=S)Nc2ccccc2)c1N
GI50 (T47D): 22 µM (inactive)
GI50 (SK-MEL-2): 0.258 µM (active)
GI50 (NCI/ADR-RES): 30.6 µM (inactive)
GI50 (DU-145): 28.8 µM (inactive)
GI50 (HCC 2998): 20.5 µM (inactive)
GI50 (OVCAR-5): 24.3 µM (inactive)
GI50 (HOP-62): 19.9 µM (inactive)
GI50 (NCI-H460): 22.8 µM (inactive)
GI50 (Malme-3M): 19.7 µM (inactive)
GI50 (CCRF-CEM): 28.1 µM (inactive)
GI50 (UO-31): 0.452 µM (active)
GI50 (NCI-H226): 18.2 µM (inactive)
GI50 (HL-60): 5.32 µM (inactive)
GI50 (UACC-257): 24.2 µM (inactive)
GI50 (HCT-15): 19.1 µM
GI50 (MOLT-4): 36.7 µM (inactive)
GI50 (SF-295): 25.6 µM (inactive)
GI50 (SF-268): 21.5 µM (inactive)
GI50 (UACC-62): 16.6 µM (inactive)
GI50 (MDA-MB-435): 18.2 µM (inactive)

Reference: ChEMBL document CHEMBL1201862, “PubChem BioAssay data set” (2004)
